Columns and labels:
[1] = system: blood PMN; assay: Chemotaxis of blood PMN from cows with endotoxin-induced mastitis; type: in vivo
Method: (§1) Fifteen cows were allotted to three groups of 5 cows each, according to milk production and parity. Cows were intramammary infused into 2 homo-lateral quarters with 100 μg Escherichia coli endotoxin (purified lipopolysacchide (LPS) obtained from E. coli 0111:B4) in 20 ml saline.
(§2) Cows were treated with the contents of one injector per endotoxin infused quarter when the first signs of clinical mastitis were evident, i.e. approximately 2 hours after endotoxin infusion. One group was treated with 300 mg of cephapirin, one group with 300 mg of cephapirin and 20 mg of prednisolone and one group was the non-treated control. The test preparations contained cephapirin and prednisolone in an oil carrier.
(§3) Blood samples were collected from the jugular vein at 24 hours before endotoxin infusion and 1.5, 8, 48 and 72 hours after endotoxin infusion.

[2] = system: leukocytes in blood; assay: Number of leukocytes in blood from cows with endotoxin-induced mastitis; type: in vivo
Method: as §1, §2, §3

[3] = system: experimental Streptococcus uberis mastitis; assay: Rectal temperature in cows with experimental Streptococcus uberis mastitis; type: in vivo; details: cephapirin alone, intramammary, 4 infusions
Method: Eighteen lactating cows were intramammarily inoculated into the two left quarters with Streptococcus uberis (±1000 CFU/quarter). At 2 days after challenge, when all cows had clinical signs of mastitis (i.e. quarter foremilk modification and/or udder swelling), cows were allotted to three groups of six cows each, to produce groups with similar parity and milk production.
One group was treated with cephapirin alone (group 1), one group was treated with cephapirin and 20 mg prednisolone (group 2) and one group was non-treated (group 3). Cows included in group 1 and group 2 were treated in the 2 left inoculated quarters at day 2 after challenge. The first treatment was applied after a morning milking, and the following three infusions were performed immediately after the next 3 consecutive milkings. Cows of group 3 were left untreated. […] The rectal temperature was determined from day 9 before first treatment up to day 19 after first treatment.

[4] = system: non-bacterial E. coli endotoxin induced clinical mastitis; details: intramammary infusion of 40 mg/unit dose; experimental conditions; cited from earlier work
[5] = system: pathogen identified on day 0 (clinical mastitis); assay: Field study: bacteriological cure rate in clinical mastitis; type: in vivo, cows; details: higher dosage of prednisolone (20 mg) versus 10 mg, field conditions
Method: Lactating cows with clinical mastitis in a single quarter (571) were treated intramammarily either with a composition A (n=260) comprising 300 mg cefapirin sodium and 20 mg of prednisolone four times with a 12 h interval or with composition B (n=254) comprising 200 mg amoxicilline, 50 mg clavulanic acid and 10 mg of prednisolone three times with a 12 h interval. These administration schedules correspond to the recommended dosage of the products. The efficacy of the treatment was determined by the bacteriological cure rate (elimination of pathogen identified on day 0) at day 14, and day 21 and the clinical cure rate (affected quarter produces normal milk and no signs of clinical mastitis anymore) at days 14 and 21.
Bacteriological cure: A cow was considered as bacteriologically cured when, both on Days 14 and 21, the milk sample from the affected quarter was free from pathogen(s) present at day 0 (at admission prior to treatment). For clinical mastitis, treatment were considered as a failure for which cows were not yet clinically cured on the first post-treatment sampling (Day 14). […]
The parameters for efficacy are the outcome variables “bacteriological cure” (cure/non-cure) and “clinical cure” (cure/non-cure). The results in Table 3 and FIG. 6 are expressed as numbers and percentages of cows cured.

[6] = system: cows with endotoxin-induced mastitis; assay: Udder scores (local inflammation) in cows with E. coli endotoxin-induced mastitis; type: in vivo
Method: Twenty-four cows were allotted to four groups of 6 cows each, according to milk production and parity. All cows were intramammary infused into two homo-lateral quarters with 100 μg Escherichia coli endotoxin (purified lipopolysacchide (LPS) obtained from E. coli 0111:B4) in 20 ml saline.
The test preparations contained cephapirin and prednisolone in an oily carrier. Four different dose levels of prednisolone were tested: 0 mg (group 1), 10 mg (group 2), 20 mg (group 3) and 40 mg (group 4) per injector (8 g) together with 200 mg of cephapirin sodium.
Cows were treated with the contents of one injector per endotoxin infused quarter when the first signs of clinical mastitis were evident, i.e. 1.5 hours after endotoxin infusion. The next three treatments were infused immediately after consecutive afternoon or morning milkings (12 hours interval) during 2 days. In total four treatments were administered.
Udder scores: The condition and swelling of quarters were determined by palpation once daily after morning milking from day−7 to day−1 relative to endotoxin infusion and twice daily after milkings from day+1 to day+6 relative to endotoxin infusion. The day of endotoxin infusion, swelling of quarters was assessed by palpation approximately every half hour during ±12.5 hours after infusion. The scoring system provides scores 0 to 4. Higher values refer to increased and more severe signs of local inflammation.

[7] = 1.5 hours relative to endotoxin infusion (before first treatment)
[8] = 8 hours relative to endotoxin infusion, treatments at 2, 8, 24 and 36 hours
[9] = 24 hours relative to endotoxin infusion, treatments at 2, 8, 24 and 36 hours
[10] = 72 hours relative to endotoxin infusion, treatments at 2, 8, 24 and 36 hours
[11] = −24 hours relative to endotoxin infusion (before treatment)

| Structure (SMILES) | Chemotactic PMN (mean) [1, 7] | Chemotactic PMN (mean) [1, 8] | Chemotactic PMN (mean) [1, 9] | Chemotactic PMN (mean) [1, 10] | Chemotactic PMN (mean) [1, 11] | Number of leukocytes in blood (mean) [2, 7] | Number of leukocytes in blood (mean) [2, 8] | Number of leukocytes in blood (mean) [2, 9] | Number of leukocytes in blood (mean) [2, 10] | Number of leukocytes in blood (mean) [2, 11] | average rectal temperature after treatment [3] | effects on local and systemic inflammatory signs [4] | influence on the bacteriological cure rate [5] | dose effect relation of prednisolone and sum of udder scores ([6]; 0, 10, 20, 40 mg prednisolone per injector with 200 mg cephapirin sodium, higher dosages gave lower sum of udder scores) | sum of udder scores compared to placebo quarters ([6]; 20 mg prednisolone per injector with 200 mg cephapirin sodium, intramammary, 4 treatments, from 8 hours post infusion up to evening milking of day 5) | sum of udder scores compared to placebo quarters (0 mg prednisolone) and quarters treated with 10 mg prednisolone ([6]; 40 mg prednisolone per injector with 200 mg cephapirin sodium, intramammary, 4 treatments, from 8 hours post infusion up to evening milking of day 5) |
| --- | --- | --- | --- | --- | --- | --- | --- | --- | --- | --- | --- | --- | --- | --- | --- | --- |
| CC(=O)OCC1=C(C(=O)O)N2C(=O)[C@@H](NC(=O)CSc3ccncc3)[C@H]2SC1 [Cephapirin] | 1.404e+06 mL⁻¹ | 142000 mL⁻¹ | 650000 mL⁻¹ | 135000 mL⁻¹ | 2.115e+06 mL⁻¹ | 8157 | 6329 | 12148 | 11317 | 8217 | decreased slowly |  |  |  |  |  |
| C[C@]12C=CC(=O)C=C1CC[C@@H]1[C@@H]2[C@@H](O)C[C@@]2(C)[C@H]1CC[C@]2(O)C(=O)CO [prednisolone, (11β)-11,17,21-trihydroxypregna-1,4-diene-3,20-dione] |  |  |  |  |  |  |  |  |  |  |  | improved effects | did not negatively influence | clear dose effect relation | lower sum of udder scores | significantly lower |

Source: patent publication US7812009B2, “Mastitis treatment” (Intervet International B.V., priority 2002, dated 2010)
